The assay addresses T1, Corticosteroid-binding globulin (Homo sapiens, UniProt P08185).
T1 sequence (P08185 whole entry): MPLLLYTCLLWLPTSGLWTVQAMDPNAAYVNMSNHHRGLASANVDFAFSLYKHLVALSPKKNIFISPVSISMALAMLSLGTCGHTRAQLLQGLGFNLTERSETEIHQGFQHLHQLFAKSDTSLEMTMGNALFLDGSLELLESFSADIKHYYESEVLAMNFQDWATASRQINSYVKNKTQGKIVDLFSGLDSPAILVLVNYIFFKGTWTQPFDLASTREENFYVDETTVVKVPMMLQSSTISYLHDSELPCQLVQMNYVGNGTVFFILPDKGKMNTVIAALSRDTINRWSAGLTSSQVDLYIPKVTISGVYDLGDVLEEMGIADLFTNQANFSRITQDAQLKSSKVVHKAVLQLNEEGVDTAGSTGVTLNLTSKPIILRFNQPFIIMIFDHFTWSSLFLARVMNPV
The experiment in a line: Binding affinity to human CBG receptor (corticosteroid-binding globulins).

Molecules are shown by their SMILES.

What is called Ki is the dissociation constant of the complex between target and ligand, obtained from inhibition or displacement. Read a high Ki as weaker binding.

For the compound `CC(=O)[C@@]1(O)CC[C@H]2[C@@H]3CC[C@@H]4C[C@H](O)CC[C@]4(C)[C@H]3CC[C@@]21C` [HYDROXYPREGNENOLONE], affinity was put at a Ki of 10000 nM.
To `C[C@]12CC[C@H]3[C@@H](CCC4=CC(=O)CC[C@@]43C)[C@@H]1CC[C@@H]2C(=O)CO` [DESOXYCORTICOSTERONE] belongs 22.4 nM; to `C[C@@H]1C[C@@]2(C)C(=CC1=O)CC[C@H]1[C@@H]3CC[C@](O)(C(=O)CO)[C@@]3(C)C[C@H](O)[C@@]12F`, 1580 nM; to `C[C@]12C=CC(=O)C=C1CCC1[C@@H]2[C@@H](O)C[C@@]2(C)[C@H]1CC[C@]2(O)C(=O)CO` (single isomer, unassigned) [PREDNISOLONE], 30.9 nM.
As for `CC(=O)OCC(=O)[C@@]1(O)CC[C@H]2[C@@H]3CCC4=CC(=O)CC[C@]4(C)[C@H]3[C@@H](O)C[C@@]21C` [HYDROCORTISONE ACETATE], the figure is 28.2 nM.
To `CC(=O)[C@@]1(O)[C@H](O)C[C@H]2[C@@H]3CCC4=CC(=O)CC[C@]4(C)[C@H]3CC[C@@]21C` belongs 562 nM; to `C[C@]12CC[C@H]3[C@@H](CCC4=CC(=O)CC[C@@]43C)[C@@H]1CC[C@@H]2O` [TESTOSTERONE], 191 nM; to `C[C@]12CC[C@@H]3c4ccc(O)cc4CC[C@H]3[C@@H]1CC[C@@H]2O` [ESTRADIOL], 10000 nM.
Regarding `CC(=O)C1CCC2C3C[C@H](C)C4=CC(=O)CCC4(C)C3CCC12C` (stereo partly specified), the Ki was 75.9 nM.
As for `CC1C[C@@]2(C)C(=CC1=O)CC[C@@H]1[C@@H]2C(=O)C[C@@]2(C)[C@H]1CC[C@]2(O)C(=O)CO` (stereo partly specified), the figure is 20.4 nM; as for `CC(=O)[C@H]1CC[C@H]2[C@@H]3CCC4=CC(=O)CC[C@]4(C)[C@H]3C(=O)C[C@]12C`, 166 nM.
As for `C[C@]12C[C@H](O)[C@H]3[C@@H](CCC4=CC(=O)CC[C@@]43C)[C@@H]1CC[C@@H]2C(=O)CO` (stereo in doubt; form 1) [CORTICOSTERONE], the figure is 63.1 nM; as for `C[C@]12CC[C@@H]3c4ccc(O)cc4CC[C@H]3[C@@H]1C[C@@H](O)[C@@H]2O` [ESTRIOL], 10000 nM; as for `C[C@]12CCC(=O)C=C1CC[C@@H]1[C@@H]2[C@@H](O)C[C@]2(C=O)[C@@H](C(=O)CO)CC[C@@H]12` [ALDOSTERONE], 525 nM.
As for `C[C@]12CCC(=O)C=C1CC[C@@H]1[C@@H]2CC[C@@]2(C)[C@H]1CC[C@]2(O)C(=O)CO` [CORTODOXONE], the figure is 13.2 nM; as for `C[C@]12CC[C@H](O)CC1=CC[C@@H]1[C@@H]2CC[C@]2(C)C(=O)CC[C@@H]12` [PRASTERONE], 10000 nM.
With `C[C@]12CCC(=O)C=C1CC[C@@H]1[C@@H]2CC[C@]2(C)C(=O)CC[C@@H]12` [ANDROSTENEDIONE], the affinity corresponds to a Ki of 1740 nM.
`C[C@]12CC[C@@H]3c4ccc(O)cc4CC[C@H]3[C@@H]1CCC2=O` [ESTRONE] showed a Ki of 10000 nM.
For `C[C@]12C[C@H](O)[C@H]3[C@@H](CCC4=CC(=O)CC[C@@]43C)[C@@H]1CC[C@@H]2C(=O)CO` (stereo in doubt; form 2) [CORTICOSTERONE], the Ki is 13.2 nM.
`CC(=O)[C@H]1CC[C@H]2[C@@H]3CCC4=CC(=O)CC[C@]4(C)[C@H]3CC[C@]12C` [PROGESTERONE] had a Ki of 41.7 nM.
As for `C[C@]12CC[C@H]3[C@@H](CCC4=CC(=O)CC[C@@H]43)[C@@H]1CC[C@@H]2O` [NANDROLONE], the figure is 724 nM; as for `CC(=O)[C@H]1CC[C@H]2[C@@H]3CCC4=CC(=O)CC[C@@H]4[C@H]3CC[C@]12C`, 151 nM.
To `CC(=O)[C@H]1CC[C@H]2[C@@H]3CC=C4C[C@@H](O)CC[C@]4(C)[C@H]3CC[C@]12C` [PREGNENOLONE] belongs 5890 nM; to `CC(=O)[C@@]1(O)CC[C@H]2[C@@H]3CCC4=CC(=O)CC[C@]4(C)[C@H]3CC[C@@]21C` [HYDROXYPROGESTERONE], 18.2 nM; to `C[C@]12CCC(=O)C=C1CCC1[C@@H]2C(=O)C[C@@]2(C)[C@H]1CC[C@]2(O)C(=O)CO` (single isomer, unassigned) [CORTISONE], 129 nM.
As for `C[C@]12CC[C@H](O)C[C@@H]1CC[C@@H]1[C@@H]2CC[C@]2(C)[C@@H](O)CC[C@@H]12` [ANDROSTANEDIOL], the figure is 10000 nM.

These data come from ChEMBL document CHEMBL1148457, “Comparative molecular active site analysis (CoMASA). 1. An approach to rapid evaluation of 3D QSAR” (J Med Chem, 2004).
